Laboratory results taken from patent publication US7645882B2, “Inhibitor of protein modification products formation” (priority 2003, dated 2010).
One block for each compound: values may come before it.

Assays:
normal rat (WKY rat) = experiment: Vitamin B6 deficiency in normal rat; assay type: in vivo; conditions: 13 mg/kg/rat/once twice daily by sonde, 20 weeks
Experimental: TM-2002 was administered to normal rat (WKY rat: Japan SLC) to examine the presence of vitamin B6 deficiency. Aminoguanidine, which is known its vitamin B6 capturing effect was used as control. Each group involves 10 rats. 13 mg/kg/rat/once of TM-2002 or aminoguanidine suspended in carboxymethyl cellulose (0.5%) was respectively administered coercively using sonde twice a daily. Administration term was 20 weeks. The conventional diet (CRF1: Oriental yeast) was used.
After 20 weeks, the appearance of WKY rat was observed.

pentosidine = experiment: Pentosidine production inhibiting effect with BSA and arabinose; assay type: biochemical; conditions: BSA and arabinose instead of plasma
Experimental: Fresh heparinized plasma samples were obtained after informed consent from hemodialysis patients prior to the dialysis session, and filtrated and sterilized. To the plasma (450 μL), there was added the solution of TM-2002 in dimethylsurphoxide (50 μL) (final concentration: 0.8, 2.0, 5.0 mM) incubated at 37° C. for one week. Then, the amount of pentosidine was measured.
Measurement of the amount of pentosidine was made as follows: to each incubated sample (50 μL) was added an equal volume of 10% trichloroacetic acid, followed by centrifugation at 5000 g for 5 minutes; after removal of the supernatant, the pellet was washed by 5% trichloroacetic acid (300 μL); the pellet was dried under reduced pressure and then subjected to hydrolysis in 6N HCl solution (100 μL) at 110° C. under nitrogen atmosphere for 16 hours; to the hydrolysate, 5N NaOH (100 μL) and 0.5 M phosphate buffer (pH 7.4) (200 μL) were added, followed by filtration through a porefilter with a pore size of 0.5 μm and dilution with PBS. The concentration of free pentosidine was determined by reversed-phase HPLC using a fluorescence detector (Miyata, T. et al.: Proc. Natl. Acad. Sci. USA, Vol. 93, p. 2353-2358, 1996). The effluent was monitored at 335/385 nm of excitation/emission wavelength. Synthetic pentosidine was used as the standard. The detection limit of pentosidine was 0.1 pmol/mg protein.
The plasma from patients was substituted to BSA and arabinose, and the pentosidine production inhibiting effect of another compounds (I) or (II) was measured in the same manner as [Test Examination 1]. Therein, “-” means that the examination was not carried out.

[1] = Solubility and stability of TM-2002 injectable lyophilized formulation; assay type: physicochemical; conditions: room temperature, at 10 hours
Experimental: L-cystein hydrochloride (160 mg) was added to 80 ml of purified water, stirred and solved. The solution was adjust at pH 6.7 with 1N NaOH aqueous solution. Then 1 g of TM-2002 hydrochloride was added, stirred and solved, and the solution diluted with purified water to 100 ml with measuring flask. Such solution was divided into vial container of 50 ml by 6.3 ml each, frozen immediately with dry ice, and then stored at −80° C. to freeze completely. This was subjected to lyophilized for 3 days using lyophilizer. After lyophilizing, covered by rubber cap and sealed by aluminum cap using fastener, TM-2002 injectable lyophilized formulation was prepared.
To TM-2002 injectable lyophilized formulation prepared above, there was added 20 ml of purified water per 1 vial. […] TLC (Kiezel gel 60F254/developing solvent: CHCl3:MeOH=9:1/detection:UV=254 nm) was carried out to examine the change of ingredient. […] The result of TLC is represented in FIG. 16. When the solution was further diluted with saline, the stability was as same. […] The formulation is suitable for injectable lyophilized formulation which is prepared before use, and stable and usable.

[2] = Examination of stabilizing agent in TM-2002 hydrochloride solution; assay type: physicochemical
From the text: Several kind of stabilizing agent was usually used to stabilize the medicament and the effective manner is addition of antioxidant. Particularly, the material having lower oxidation-reduction potential is effective to stabilize highly oxidized compound. Accordingly, for sodium acid sulfite (NaHSO3) and L-cystein ([…]), which are usually used in injection, the stability was examined by adding such materials to TM-2002 hydrochloride aqueous solution.
The solving state of TM-2002 hydrochloride solution added sodium acid sulfite was examined in following manner; 1 ml of purified water, sodium acid sulfite (0.5 mg) and sodium acid sulfite (1 mg) solution was prepared respectively; to these solutions, there was added 63 mg of TM-2002 hydrochloride, stirred and solved; the solutions allowed to warm to room temperature to observe the solving state. […] Accordingly, the stability of TM-2002 itself will increase by using hydrochloride.
The solving state of TM-2002 hydrochloride solution added L-cystein hydrochloride was examined in following manner; 1 mg and 2 mg of L-cystein hydrochloride were dissolved in 1 ml of purified water respectively; pH was adjusted to 6.5; to these solutions, there was added 63 mg of TM-2002 hydrochloride, stirred and solved; the solutions allowed to warm to room temperature to observe the solving state. […] In addition, the degradability was observed by thin layer chromatography (TLC/Silica-gel 60F254 (Merck Japan)/developing solvent: chloroform:methanol=9:1/detection:UV=254 nm). […] Accordingly, the present invention provides lyophilized formulation comprising L-cystein by treating TM-2002 hydrochloride solution at low temperature and lyophilizing.

ORP150 = experiment: ER stress inducing molecule expression in RIN-5F cells, western blot, ORP150; assay type: cell-based, rat; conditions: tunicamycin added, 8 hours
Experimental: (§1) Rat pancreatic β cell line (RIN-5F) was seeded in 6 well culture plate to 1.0×10^5 cells/well, and after 24 hours, TM-2002 in DMSO (200 mM, 50 mM) were added to be final concentration 200 μM, 50 μM. After another 1 hour, 0.2 μl of tunicamycin (Sigma) in methanol(1 mg/ml) was added. After culturing 8 hours, the cells were washed 2 ml of PBS(+) twice, and the cells were dissolved in 100 μl of lysate (50 mM Tris-HCl (pH 7.5), 150 mM NaCl, 100 mM NaF, 100 mM sodium phosphate (pH 7.4), 2 mM Na3VO4, 0.1% protease inhibitor cocktail (Sigma), 1% Triton X-100). To remove the insoluble fraction of this lysate, centrifuged at 12,000×g for 10 minutes and obtained the supernatant to give cell extract. The extract was quantified its protein concentration using DC protein assay kit (Bio Rad), and each samples (1 μg) was electrophoresed by SDS-PAGE and transferred to PVDF membrane. The membrane was blocked with 5% skimmed milk/0.1% Tween20-TBS for 1 hour at room temperature, and reacted with anti-ORP150 antibody in 5% skimmed milk/0.1% Tween20-TBS (2000 folds: specific antibody), anti-GRP78 antibody (Santa Cruz) in 5% skimmed milk/0.1% Tween20-TBS (100 folds) and anti-actin antibody (Sigma) in 5% skimmed milk/0.1% Tween20-TBS (200 folds) for 2 hours. […] The detected signal was analyzed by Lane analyzer (ATTO) and calculated the signal strength. […]

GRP78 = experiment: ER stress inducing molecule expression in RIN-5F cells, western blot, GRP78; assay type: cell-based, rat; conditions: tunicamycin added, 8 hours
Experimental: as §1

[3] = 63 mg in 1 ml purified water only, pH 2 to 2.5, after 24 hours

Compound: N=C(N)NN [aminoguanidine]
condition caused by vitamin B6 deficiency (appearance) (normal rat (WKY rat)): skin inflammation, epilepsy and convulsion caused by cerebral disorder were observed

decomposition products (TLC) [1]: decomposition products were observed
solving state ([2]; 63 mg in 1 ml with 0.5 mg or 1 mg sodium acid sulfite, room temperature, after 24 hours): remarkable precipitates were observed
solving state ([2]; 63 mg in 1 ml with 1 mg or 2 mg L-cystein hydrochloride, after 24 hours): no change was observed in solving state
stabilization (TLC) ([2]; by addition of L-cystein, room temperature): significantly stabilized
degradability (TLC) ([2]; left over 24 hours at room temperature): degraded very slowly
stability of the solution ([2]; solution with L-cystein hydrochloride, preservation at −20° C., one week): stable after one week
solving state ([2]; with sodium sulfite or sodium pyrosulfite instead of sodium acid sulfite): crystal precipitate was deposited
Compound: Cc1ncc2c(c1O)C(c1c(C)nn(-c3ccccc3)c1O)OC2.Cl (centres unmarked) [compound 69, 1-(5-hydroxy-3-methyl-1-phenyl-1H-pyrazol-4-yl)-6-methyl-1,3-dihydro-furo[3,4-c]pyridin-7-ol (hydrochloric acid salt)]
Pentosidine production rate in 5 mM of medicament (%) (pentosidine): 2.94%
TM-2002 degradation [2, 3]: significant suppress of TM-2002 degradation was observed
solving state [2, 3]: no change was observed in its solving state
solving state ([2]; 63 mg in 1 ml with 1 mg or 2 mg L-cystein hydrochloride, pH adjusted to 6.5, room temperature): no precipitates and deposits was observed

Compound: tunicamycin [reference compound]
ORP150 expression compared to control sample (ORP150): 1.88 folds
GRP78 expression compared to control sample (GRP78): 1.46 fords
